Holding throughout (test): Bliss excess, mean over the matrix (fraction); higher = more synergy
Experiment [1] deals with RL95-2 (Endometrial Carcinoma). The method, boiled down: (§1)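 Cell lines grown in DMEM/F12 or RPMI with 10% FBS were plated in 1536-well plates and held 24 hours at 37°C, 5% CO2 before 72 hours of exposure to two-drug dose matrices, with DMSO typically at 0.2%. CellTiter-Glo 2.0 luminescence gave viability, which was converted to inhibition. Vehicle wells were set to 0 and blank wells to 1. Combination Emax is the second-highest inhibition in the matrix, and Bliss excess is the observed combination effect minus the expected EA + EB − EA·EB, where EA and EB are the single-agent effects.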

The subject of experiment [2] is HTC-C3 (Thyroid Gland Carcinoma). The method, boiled down: as §1
Experiment [3] deals with RMG-I (Ovarian Carcinoma). In a few lines: as §1
The test system of a further experiment is 786-0 (Kidney Carcinoma). In a few lines:
as §1

For experiment [4], the system named is PC-14 (Lung Adenocarcinoma). The method, boiled down:
as §1

The test system of experiment [5] is RPMI-8866 (Chronic Myelogenous Leukemia). In a few lines: as §1
Experiment [6] deals with SNU-175 (Colorectal Carcinoma). In a few lines: as §1
The test system of experiment [7] is AsPC-1 (Pancreatic Carcinoma). The method, boiled down:
as §1

The subject of experiment [8] is SK-MM-2 (Plasma Cell Myeloma). In a few lines: as §1
A further experiment relates to KYM-1 (Rhabdomyosarcoma). The method, boiled down: as §1
Experiment [9] concerns OV-90 (Ovarian Carcinoma). In a few lines: as §1
Experiment [10] deals with NCI-H1155 (Non-Small Cell Lung Carcinoma). In a few lines:
as §1

Experiment [11] concerns OVTOKO (Ovarian Carcinoma). In a few lines: as §1
The next experiment deals with CHL-1 (Melanoma). The method, boiled down:
as §1

A further experiment concerns RT4 (Bladder Carcinoma). The method, boiled down: as §1
The subject of experiment [12] is PANC-02-03 (Pancreatic Carcinoma). The method, boiled down: as §1
The test system of experiment [13] is JHH-1 (Hepatocellular Carcinoma). The method, boiled down:
as §1

Experiment [14] concerns COLO-684 (Endometrial Carcinoma). In a few lines:
as §1

Experiment [15] deals with HSC-3 (Oral Cavity Carcinoma). The method, boiled down:
as §1

Experiment [16] concerns OCI-AML5 (Acute Myeloid Leukemia). The method, boiled down:
as §1

Consider `Cc1cc2ncnn2cc1Nc1ncc2c(n1)n(C1CCOCC1)c(=O)n2C` [AZD7648] + CN(C)CCCOc1ccc(-c2ccc3ncc4c(c3c2)n(C2CCOCC2)c(=O)n4C)cn1 [AZD0156] (first compound max 10 µM, 7x7, partner max 1 µM), for which the Bliss excess in experiment [1] was 0.0161; in [2] it was 0.0024; in experiment [3], -0.0322; in the experiment on 786-0 (Kidney Carcinoma), 0.0224; in experiment [4], 0.0186; in experiment [5], -0.0363. The Bliss excess in experiment [6] was -0.0021; in experiment [7], -0.0291; in experiment [8], -0.0552; in the experiment on KYM-1 (Rhabdomyosarcoma), 0.0278; in experiment [9] it was -0.0374; in experiment [10] it was 0.0397. Also, the Bliss excess in experiment [11] was -0.0537; in the experiment on CHL-1 (Melanoma) it was 0.0169; with RT4 (Bladder Carcinoma) it was 0.0212; in experiment [12], 0.0002; in [13] it was 0.0063; in experiment [14] it was -0.0324. For the same compound, the Bliss excess was 0.0174 in experiment [15] and 0.0276 in experiment [16].

Consider `Cc1cc2ncnn2cc1Nc1ncc2c(n1)n(C1CCOCC1)c(=O)n2C` [AZD7648] + C[C@@H]1COCCN1C2=NC(=NC(=C2)C3(CC3)[S@](=N)(=O)C)C4=C5C=CNC5=NC=C4 [AZD6738] (first compound max 10 µM, 7x7, partner max 10 µM), for which the Bliss excess in experiment [1] was 0.024; in [2] it was 0.0229; in experiment [3], 0.0557; with 786-0 (Kidney Carcinoma), 0; in experiment [4] it was 0.0031; in experiment [5], -0.028. Moreover, the Bliss excess in [6] was -0.0374; in experiment [7], 0.0133; in [8] it was 0.0022; in the experiment on KYM-1 (Rhabdomyosarcoma), 0.0015; in experiment [9], -0.0156; in [10], 0.0038. The Bliss excess in experiment [11] is 0.0118; with CHL-1 (Melanoma) it was 0.0093; with RT4 (Bladder Carcinoma), 0.0354; in experiment [12], 0.0561; in experiment [13] it was 0.0354; in [14], -0.0527. Besides, the Bliss excess was -0.0299 in experiment [15] and -0.0209 in experiment [16].

`Cc1cc2ncnn2cc1Nc1ncc2c(n1)n(C1CCOCC1)c(=O)n2C` [AZD7648] + O=C(c1cc(Cc2n[nH]c(=O)c3ccccc23)ccc1F)N1CCN(C(=O)C2CC2)CC1 [Olaparib] (first compound max 10 µM, 7x7, partner max 10 µM): the Bliss excess is -0.0444 in experiment [1]; -0.0224 in experiment [2]; -0.0685 in experiment [3]; -0.0162 with 786-0 (Kidney Carcinoma); -0.0245 in [4]; 0.0298 in experiment [5]. The Bliss excess is -0.025 in experiment [6]; -0.0567 in [7]; -0.0204 in experiment [8]; -0.0078 in the experiment on KYM-1 (Rhabdomyosarcoma); -0.0419 in [9]; -0.0235 in experiment [10]. Further, the Bliss excess is -0.0433 in experiment [11]; -0.0266 in the experiment with CHL-1 (Melanoma); 0.0016 in the experiment with RT4 (Bladder Carcinoma); -0.0411 in [12]; -0.0621 in experiment [13]; -0.0054 in experiment [14]. Also, the Bliss excess in [15] was -0.0102; in experiment [16] it was 0.0077.

For `NC1(C(=O)N[C@@H](CCO)c2ccc(Cl)cc2)CCN(c2ncnc3[nH]ccc23)CC1` [Capivasertib] + CC(=O)c1c(C)c2cnc(Nc3ccc(N4CCNCC4)cn3)nc2n(C2CCCC2)c1=O [Palbociclib] (first compound max 10 µM, 7x7, partner max 10 µM), the Bliss excess was 0.0215 in [1]; 0.0437 in experiment [2]; -0.0098 in experiment [3]; 0.0245 in the experiment with 786-0 (Kidney Carcinoma); 0.0388 in experiment [4]; 0.0215 in experiment [5]. For the same compound, the Bliss excess in experiment [6] was -0.0442; in [7] it was -0.025; in [8], -0.0005; with KYM-1 (Rhabdomyosarcoma), -0.0312; in experiment [9] it was -0.0562; in experiment [10], -0.0084. For the same compound, the Bliss excess in experiment [11] was -0.0688; in the experiment on CHL-1 (Melanoma), -0.0082; in the experiment with RT4 (Bladder Carcinoma), 0.0114; in experiment [12] it was -0.0351; in experiment [13], -0.0687; in experiment [14], -0.0759. In addition, the Bliss excess was -0.0076 in [15] and -0.0096 in experiment [16].

Turning to `NC1(C(=O)N[C@@H](CCO)c2ccc(Cl)cc2)CCN(c2ncnc3[nH]ccc23)CC1` [Capivasertib] + CC(C)n1c(=O)n(C)c2cnc3cc(F)c(-c4ccc(OCCCN5CCCCC5)nc4)cc3c21 [AZD1390] (first compound max 10 µM, 7x7, partner max 0.3 µM), the Bliss excess is -0.0709 in experiment [1]; -0.0216 in experiment [2]; -0.062 in experiment [3]; -0.0997 with 786-0 (Kidney Carcinoma); -0.0168 in [4]; 0.0503 in experiment [5]. The Bliss excess in experiment [6] is -0.0346; in [7], -0.0512; in experiment [8], -0.115; in the experiment with KYM-1 (Rhabdomyosarcoma), -0.0278; in experiment [9], -0.0325; in [10] it was -0.031. Further, the Bliss excess in [11] is -0.0752; with CHL-1 (Melanoma) it was -0.0209; in the experiment on RT4 (Bladder Carcinoma), -0.0651; in experiment [12] it was -0.013; in experiment [13] it was -0.0495; in experiment [14], -0.0909. The Bliss excess in experiment [15] was -0.0746; in experiment [16] it was -0.0369.

As for `NC1(C(=O)N[C@@H](CCO)c2ccc(Cl)cc2)CCN(c2ncnc3[nH]ccc23)CC1` [Capivasertib] + CCN(CCO)CCCOc1ccc2c(Nc3cc(CC(=O)Nc4cccc(F)c4)[nH]n3)ncnc2c1 [AZD2811] (first compound max 10 µM, 7x7, partner max 1 µM), the Bliss excess is -0.0051 in experiment [1]; -0.015 in experiment [2]; -0.0214 in [3]; -0.0352 with 786-0 (Kidney Carcinoma); 0.028 in experiment [4]; 0.0469 in experiment [5]. In addition, the Bliss excess is 0.0058 in experiment [6]; -0.0655 in [7]; -0.0412 in experiment [8]; -0.0457 with KYM-1 (Rhabdomyosarcoma); -0.0272 in experiment [9]; -0.0152 in experiment [10]. Moreover, the Bliss excess in [11] was -0.0109; in the experiment with CHL-1 (Melanoma) it was -0.0092; in the experiment on RT4 (Bladder Carcinoma), -0.0039; in experiment [12], -0.0261; in experiment [13], -0.0517; in experiment [14] it was 0.0272. Besides, the Bliss excess in experiment [15] is -0.0374; in experiment [16] it was -0.0465.

On to `NC1(C(=O)N[C@@H](CCO)c2ccc(Cl)cc2)CCN(c2ncnc3[nH]ccc23)CC1` [Capivasertib] + COc1nnc2ccc(N3CCC(c4ccc(OCCN5CCN(C)C(=O)[C@H]5C)cc4)CC3)nn12 [AZD5153] (first compound max 10 µM, 7x7, partner max 1 µM), for which the Bliss excess in experiment [1] was -0.002; in experiment [2], 0.0265; in experiment [3], -0.0448; in the experiment on 786-0 (Kidney Carcinoma), 0.0014; in experiment [4] it was 0.0461; in experiment [5] it was -0.0511. In addition, the Bliss excess was -0.055 in experiment [6]; -0.0273 in experiment [7]; -0.107 in [8]; -0.0306 in the experiment with KYM-1 (Rhabdomyosarcoma); 0.0045 in [9]; 0.0992 in experiment [10]. Besides, the Bliss excess in experiment [11] was 0.0497; with CHL-1 (Melanoma) it was 0.0143; in the experiment on RT4 (Bladder Carcinoma), -0.0021; in experiment [12] it was 0.0132; in experiment [13], -0.0072; in experiment [14], -0.0133. Moreover, the Bliss excess turned out to be 0.0078 in experiment [15] and 0.0552 in [16].

Source of the values: the supplement of paper PMC11061612.
